Measurements taken from patent publication US7153869B2, “Substituted amino acids as erythropoietin mimetics” (priority 1998, dated 2006).
pIC50: −log10 of the molar value. Where two headings read alike, the source gives them in different places.

Molecular target: T1, EBP-Ig (N-terminal 225 amino acids of the human EPO receptor joined to an Ig heavy chain) (Homo sapiens, UniProt P19235)
T1 construct: Ig heavy chain (fusion partner); made in house; host or cells: NSO cells (secreted into conditioned media)
T1 sequence (P19235 25-250 limits assumed): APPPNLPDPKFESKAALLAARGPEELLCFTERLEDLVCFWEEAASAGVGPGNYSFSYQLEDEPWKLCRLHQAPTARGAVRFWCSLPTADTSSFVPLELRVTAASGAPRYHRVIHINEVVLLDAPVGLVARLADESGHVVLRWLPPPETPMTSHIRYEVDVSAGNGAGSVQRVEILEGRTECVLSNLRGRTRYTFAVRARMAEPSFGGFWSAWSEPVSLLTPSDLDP
Experiment: Inhibition of [125I]EPO binding to immobilized EBP-Ig (EPO binding protein-Ig), scintillation Flash plate competition assay
Conditions: for IC30 μM (Inhibition of EPO binding to EBP-Ig) / % inh @ 50 μM (Inhibition of EPO binding to EBP-Ig) / IC50: 0.5 nM [125I]EPO; for IC30 μM (Inhibition of EPO binding to EBP-Ig): 0–500 μM test compound; for % inh @ 50 μM (Inhibition of EPO binding to EBP-Ig): 50 μM test compound, average % inhibition; for IC50: read-out: IC50, μM (Inhibition of EPO binding to EBP-Ig), concentration reducing corrected total binding to 50%

[1] = read-out: % inh @ 50 μM (Inhibition of EPO binding to EBP-Ig)
[2] = read-out: EPO/EBP-Ig % inh @ 50 μM, 50 μM compound, Table 10

COC(=O)[C@H](CCCCN)NC/C=C/c1ccc(C(=O)O)cc1 [compound 314]
EPO/EBP-Ig % inh @ 50 μM (50 μM compound, Table 18A): 12%

O=C(O)CCC(C(=O)O)N(C/C=C/c1ccc(NC(=O)c2ccc(-c3ccccc3)cc2)cc1)Cc1ccc(OCc2ccccc2)cc1 (stereo not drawn) [compound 90]
EPO/EBP-Ig % inh @ 50 μM (Table 5, 50 μM): 29%

COC(=O)[C@H](CCC(=O)O)NC/C=C/c1ccc(-c2ccccc2)cc1.O=C(O)C(F)(F)F [compound 327]
EPO/EBP-Ig % inh @ 50 μM (50 μM compound, Table 19A): 11%

NC(=O)CCC(C(=O)O)N(CC=Cc1cccs1)CC=Cc1cccs1 (stereo not drawn) [compound 55]
EPO/EBP-Ig % inh @ 50 μM (Table 3, 50 μM): 4%

O=C(O)CC(C(=O)O)N(Cc1cccc(NCc2ccc(F)cc2)c1)Cc1cccc(Oc2ccccc2)c1 (stereo not drawn) [compound 70]
EPO/EBP-Ig % inh @ 50 μM (Table 4, 50 μM): −8%

COC(=O)C(CCCCNC(=O)OCc1ccccc1)N(C/C=C/c1ccccc1)C/C=C/c1ccccc1 (stereo not drawn) [compound 171]
EPO/EBP-Ig % inh @ 50 μM (50 μM compound, Table 9): nb

CC(C)(CC(=O)O)CC(=O)NCCCCC(C(=O)NCCOCCOCCNC(=O)C(CCCCNC(=O)CC(C)(C)CC(=O)O)N(Cc1ccc(OCc2ccccc2)cc1)Cc1ccc(OCc2ccccc2)cc1)N(Cc1ccc(OCc2ccccc2)cc1)Cc1ccc(OCc2ccccc2)cc1 (stereo not drawn) [compound 264]
IC30 μM (Inhibition of EPO binding to EBP-Ig): 1.5 µM
EPO/EBP-Ig % inh @ 50 μM (50 μM compound, Table 13): 89%
% inh @ 50 μM (Inhibition of EPO binding to EBP-Ig): 89%
IC50: 8 µM

COc1ccccc1CCNC(=O)C(CCCCN)N(CC=Cc1ccccc1)CC=Cc1ccccc1 (stereo not drawn) [compound 224]
IC30 μM (Inhibition of EPO binding to EBP-Ig): 25 µM
inhibition at 50 µM [1]: 51%
inhibition at 50 µM [2]: 51%
IC50: 50 µM

CC(C)(C)OC(=O)CCC(NCC=Cc1cccc(Oc2ccccc2)c1)C(=O)O (stereo not drawn) [cpd 337, N-(3-Phenoxycinnamyl)Glu(O-t-Bu)-OH]
EPO/EBP-Ig % inh @ 50 μM (50 μM compound, Table 19A): 0%

O=C(O)CCC(=O)NCCCCC(C(=O)NCCOCCOCCNC(=O)C(CCCCNC(=O)CCC(=O)O)N(Cc1ccc(OCc2ccccc2)cc1)Cc1ccc(OCc2ccccc2)cc1)N(Cc1ccc(OCc2ccccc2)cc1)Cc1ccc(OCc2ccccc2)cc1 (stereo not drawn) [compound 262]
IC30 μM (Inhibition of EPO binding to EBP-Ig): 1 µM
IC50: 1.5 µM

COC(=O)C(CCCCN)N(Cc1ccc(OCc2ccccc2)cc1)Cc1cccc(NC(=O)c2ccco2)c1 (stereo not drawn) [cpd 117, N-(4-Benzyloxybenzyl)-N-(3-((2-furancarbonyl)amino)benzyl)Lys-OMe]
% inh @ 50 μM (Inhibition of EPO binding to EBP-Ig): 34%
EPO/EBP-Ig % inh @ 50 μM (Table 7, 50 μM): 34%

CC(C)(C)OC(=O)CCC(C(=O)O)N(C/C=C/c1ccc2ccccc2c1)C/C=C/c1ccc2ccccc2c1 (stereo not drawn) [compound 97]
EPO/EBP-Ig % inh @ 50 μM (Table 6, 50 μM): 14%

CC(C)(C)OC(=O)CN(C/C=C/c1cccc(Oc2ccccc2)c1)C/C=C/c1cccc(Oc2ccccc2)c1 [compound 311]
EPO/EBP-Ig % inh @ 50 μM (50 μM compound, Table 17A): 5.3%

COC(=O)C(CCCCN)N(Cc1ccc(OCc2ccccc2)cc1)Cc1cccc(NC(=O)C(C)C)c1 (stereo not drawn) [compound 119]
% inh @ 50 μM (Inhibition of EPO binding to EBP-Ig): 34%
EPO/EBP-Ig % inh @ 50 μM (Table 7, 50 μM): 34%

O=C(O)CCC(C(=O)NCCOCCOCCNC(=O)C(CCC(=O)O)N(Cc1ccc(OCc2ccccc2)cc1)Cc1ccc(OCc2ccccc2)cc1)N(Cc1ccc(OCc2ccccc2)cc1)Cc1ccc(OCc2ccccc2)cc1 (stereo not drawn) [cpd 246, [N,N-bis(4-Benzyloxybenzyl)GluNHCH2CH2OCH2]2]
IC30 μM (Inhibition of EPO binding to EBP-Ig): 10 µM
inhibition at 50 µM [1]: 79%
inhibition at 50 µM (read-out: EPO/EBP-Ig % inh @ 50 μM, Table 11, 50 μM): 79%

COC(=O)C(CCC(=O)OC(C)(C)C)N(C/C=C/c1cccc(Oc2ccc(Cl)c(Cl)c2)c1)C/C=C/c1cccc(Oc2ccc(Cl)c(Cl)c2)c1 (stereo not drawn) [compound 99]
EPO/EBP-Ig % inh @ 50 μM (Table 6, 50 μM): 13%

CCCCC(=O)Nc1cccc(CN(Cc2ccc(OCc3ccccc3)cc2)C(CCCCN)C(=O)OC)c1 (stereo not drawn) [compound 116]
% inh @ 50 μM (Inhibition of EPO binding to EBP-Ig): 32%
EPO/EBP-Ig % inh @ 50 μM (Table 7, 50 μM): 32%

CC(=O)O.COC(=O)c1cccc(C=CCNC(CSCc2ccccc2)C(=O)OC)c1 (stereo not drawn) [compound 368]
IC30 μM (Inhibition of EPO binding to EBP-Ig): 90 µM
EPO/EBP-Ig % inh @ 50 μM (50 μM compound): 40%
% inh @ 50 μM (Inhibition of EPO binding to EBP-Ig): 40%

COC(=O)C(CCCCN)N(C/C=C/c1cccc(Oc2ccc(C(C)(C)C)cc2)c1)Cc1cccc(OCc2ccccc2)c1 (stereo not drawn) [compound 139]
pIC50: 5.00
IC30 μM (Inhibition of EPO binding to EBP-Ig): 2 µM
inhibition at 50 µM [1]: 46%

COC(=O)C(CCCCN)N(Cc1ccc(OCc2ccccc2)cc1)Cc1cccc(NC(=O)c2ccc3ccccc3c2)c1 (stereo not drawn) [compound 121]
IC30 μM (Inhibition of EPO binding to EBP-Ig): 6 µM
% inh @ 50 μM (Inhibition of EPO binding to EBP-Ig): 45%
EPO/EBP-Ig % inh @ 50 μM (Table 7, 50 μM): 45%

COC(=O)C(CCCCN)N(Cc1cccc(OCc2ccccc2)c1)Cc1cccc(OCc2ccccc2)c1 (stereo not drawn) [compound 112]
IC30 μM (Inhibition of EPO binding to EBP-Ig): 2 µM
% inh @ 50 μM (Inhibition of EPO binding to EBP-Ig): 59%
EPO/EBP-Ig % inh @ 50 μM (Table 7, 50 μM): 59%
IC50: 10 µM

CC(=O)O.COC(=O)CC(NCC=Cc1cccc(C(=O)OC)c1)C(=O)OC (stereo not drawn) [compound 366]
IC30 μM (Inhibition of EPO binding to EBP-Ig): 65 µM
EPO/EBP-Ig % inh @ 50 μM (50 μM compound): 38%
% inh @ 50 μM (Inhibition of EPO binding to EBP-Ig): 38%

COC(=O)[C@H](COC(C)(C)C)N(C/C=C/c1ccccc1)C/C=C/c1ccccc1 [compound 306]
EPO/EBP-Ig % inh @ 50 μM (50 μM compound, Table 16A): 21%

COC(=O)C(CCC(=O)OC(C)(C)C)N(CC=Cc1cccc(Oc2ccccc2)c1)CC=Cc1cccc(Oc2ccccc2)c1 (stereo not drawn) [cpd 96, N,N-bis(3-Phenoxycinnamyl)Glu(O-t-Bu)-OMe]
EPO/EBP-Ig % inh @ 50 μM (Table 6, 50 μM): −5%

CC(C)(C)OC(=O)CC(C(=O)NCCCCCCCCCCNC(=O)C(CC(=O)OC(C)(C)C)N(C/C=C/c1cccc(Oc2ccc(C(C)(C)C)cc2)c1)C/C=C/c1cccc(Oc2ccc(C(C)(C)C)cc2)c1)N(C/C=C/c1cccc(Oc2ccc(C(C)(C)C)cc2)c1)C/C=C/c1cccc(Oc2ccc(C(C)(C)C)cc2)c1 (stereo not drawn) [compound 254]
EPO/EBP-Ig % inh @ 50 μM (50 μM compound, Table 12): −9%

COC(=O)[C@H](CO)NCC=Cc1cccc(Oc2ccccc2)c1 [cpd 346, N-(3-Phenoxycinnamyl)Ser-OMe]
EPO/EBP-Ig % inh @ 50 μM (50 μM compound, Table 20A): 28%

COC(=O)[C@H](CO)NC/C=C/c1ccc(-c2ccccc2)cc1.O=C(O)C(F)(F)F [compound 342]
EPO/EBP-Ig % inh @ 50 μM (50 μM compound, Table 20A): 0%

COC(=O)[C@H](CCC(=O)OC(C)(C)C)NC/C=C/c1cccc(Oc2ccc(Cl)c(Cl)c2)c1 [compound 336]
EPO/EBP-Ig % inh @ 50 μM (50 μM compound, Table 19A): 32%

N=C(N)NCCCC(C(=O)O)N(CC=Cc1cccs1)CC=Cc1cccs1 (stereo not drawn) [compound 49]
EPO/EBP-Ig % inh @ 50 μM (Table 3, 50 μM): 1%

COc1cccc(CCNC(=O)C(CCCCNC(=O)CCC(=O)O)N(CC=Cc2ccccc2)CC=Cc2ccccc2)c1 (stereo not drawn) [compound 237]
IC30 μM (Inhibition of EPO binding to EBP-Ig): 30 µM
inhibition at 50 µM [1]: 55%
inhibition at 50 µM [2]: 55%
IC50: 70 µM

CC(C)(C)OC(=O)CC(C(=O)NCCCOCCCCOCCCNC(=O)C(CC(=O)OC(C)(C)C)N(Cc1ccc(OCc2ccccc2)cc1)Cc1ccc(OCc2ccccc2)cc1)N(Cc1ccc(OCc2ccccc2)cc1)Cc1ccc(OCc2ccccc2)cc1 (stereo not drawn) [compound 241]
EPO/EBP-Ig % inh @ 50 μM (Table 11, 50 μM): 2%

COc1ccc(CCNC(=O)C(CCCCNC(=O)Nc2ccccc2)N(C/C=C/c2cccc(Oc3ccccc3)c2)C/C=C/c2cccc(Oc3ccccc3)c2)cc1 (stereo not drawn) [compound 228]
EPO/EBP-Ig % inh @ 50 μM (50 μM compound, Table 10): 21%

COc1ccc(CCNC(=O)C(CCCCN)N(C/C=C/c2ccc(-c3ccccc3)cc2)C/C=C/c2ccc(-c3ccccc3)cc2)cc1 (stereo not drawn) [compound 238]
EPO/EBP-Ig % inh @ 50 μM (50 μM compound, Table 10): 39%
% inh @ 50 μM (Inhibition of EPO binding to EBP-Ig): 39%

COC(=O)[C@H](CCC(=O)OC(C)(C)C)NC/C=C/c1ccc(-c2ccccc2)cc1 [compound 335]
EPO/EBP-Ig % inh @ 50 μM (50 μM compound, Table 19A): 25%

CCOC(=O)CCC(C(=O)OC)N(C/C=C/c1ccccc1)C/C=C/c1ccccc1 (stereo not drawn) [compound 94]
EPO/EBP-Ig % inh @ 50 μM (Table 6, 50 μM): 25%

COC(=O)[C@H](CO)NC/C=C/c1cccc(Oc2cccc(C(F)(F)F)c2)c1.O=C(O)C(F)(F)F [compound 344]
EPO/EBP-Ig % inh @ 50 μM (50 μM compound, Table 20A): 4%

CC(C)(C)c1ccc(Oc2cccc(/C=C/CN[C@@H](CCC(=O)O)C(=O)O)c2)cc1.O=C(O)C(F)(F)F [compound 331]
EPO/EBP-Ig % inh @ 50 μM (50 μM compound, Table 19A): 18%

COC(=O)C(CCC(=O)OC(C)(C)C)N(C/C=C/c1cccc2ccccc12)C/C=C/c1cccc2ccccc12 (stereo not drawn) [compound 95]
EPO/EBP-Ig % inh @ 50 μM (Table 6, 50 μM): 15%

O=C(O)C(F)(F)F.O=C(O)CC[C@H](NC/C=C/c1cccc(Oc2cccc(C(F)(F)F)c2)c1)C(=O)O [compound 330]
EPO/EBP-Ig % inh @ 50 μM (50 μM compound, Table 19A): 12%

NCCCCC(C(=O)NCCOCCOCCNC(=O)C(CCCCN)N(Cc1ccc(OCc2ccccc2)cc1)Cc1ccc(OCc2ccccc2)cc1)N(Cc1ccc(OCc2ccccc2)cc1)Cc1ccc(OCc2ccccc2)cc1 (stereo not drawn) [compound 261]
IC30 μM (Inhibition of EPO binding to EBP-Ig): 1.5 µM
EPO/EBP-Ig % inh @ 50 μM (50 μM compound, Table 13): 51%
% inh @ 50 μM (Inhibition of EPO binding to EBP-Ig): 51%
IC50: 2 µM

O=C(O)CCC(=O)NCCCCC(C(=O)NCCCOCCOCCOCCCNC(=O)C(CCCCNC(=O)CCC(=O)O)N(Cc1ccc(OCc2ccccc2)cc1)Cc1ccc(OCc2ccccc2)cc1)N(Cc1ccc(OCc2ccccc2)cc1)Cc1ccc(OCc2ccccc2)cc1 (stereo not drawn) [compound 271]
IC30 μM (Inhibition of EPO binding to EBP-Ig): 2 µM
EPO/EBP-Ig % inh @ 50 μM (50 μM compound, Table 13): 77%
% inh @ 50 μM (Inhibition of EPO binding to EBP-Ig): 77%
IC50: 7 µM

COC(=O)[C@H](CCC(=O)OC(C)(C)C)NC/C=C/c1ccc2ccccc2c1 [compound 333]
EPO/EBP-Ig % inh @ 50 μM (50 μM compound, Table 19A): 16%
